Reference: US10544148B2, “Pesticidally active tetracyclic heterocyclic derivatives with sulphur containing substituents” (Syngenta Participations AG, priority 2014, dated 2020)

How the values were obtained:
Type in all cases: in vivo
[1] = tested on: Diabrotica balteata (Corn Root Worm); assay: Example B2: Diabrotica balteata, sprayed maize sprouts, L2 larvae; details: 96 h, application rate of 200 ppm, 4 days after infestation
Experimental: Example B2: Diabrotica balteata (Corn Root Worm)
Maize sprouts, placed on an agar layer in 24-well microtiter plates were treated with aqueous test solutions prepared from 10′000 ppm DMSO stock solutions by spraying. After drying, the plates were infested with L2 larvae (6 to 10 per well). The samples were assessed for mortality and growth inhibition in comparison to untreated samples 4 days after infestation.

[2] = tested on: Spodoptera littoralis (Egyptian Cotton Leaf Worm); assay: Example B8: Spodoptera littoralis, systemic test, compound in agar taken up by lettuce roots; details: 144 h, test rate of 12.5 ppm, systemic via lettuce roots, 6 days after infestation, read-out: effect in at least one of the three categories (mortality, anti-feedancy, or growth inhibition)
Description: Example B8: Spodoptera littoralis (Egyptian Cotton Leaf Worm)
Test compounds were applied by pipette from 10′000 ppm DMSO stock solutions into 24-well plates and mixed with agar. Lettuce seeds were placed on the agar and the multi well plate was closed by another plate which contains also agar. After 7 days the roots have absorbed the compound and the lettuce has grown into the lid plate. The lettuce leafs were now cut off into the lid plate. Spodoptera eggs were pipetted through a plastic stencil on a humid gel blotting paper and the plate closed with it. The samples were assessed for mortality, anti-feedant effect and growth inhibition in comparison to untreated samples 6 days after infestation.

[3] = tested on: Euschistus heros (Neotropical Brown Stink Bug); assay: Example B3: Euschistus heros, sprayed soybean leaf, N-2 nymphs; details: 120 h, application rate of 200 ppm, 5 days after infestation, read-out: effect in at least one of the two categories (mortality or growth inhibition)
Experimental: Example B3: Euschistus heros (Neotropical Brown Stink Bug)
Soybean leaf on agar in 24-well microtiter plates were sprayed with aqueous test solutions prepared from 10′000 ppm DMSO stock solutions. After drying the leaf were infested with N-2 nymphs. The samples were assessed for growth inhibition in comparison to untreated samples 5 days after infestation.

[4] = tested on: Myzus persicae (Green Peach Aphid); assay: Example B5: Myzus persicae, sprayed sunflower leaf discs, mixed ages; details: foliar, 144 h, application rate of 200 ppm, aphid population of mixed ages, 6 days after infestation
Experimental: Example B5: Myzus persicae (Green Peach Aphid)
(§1) Sunflower leaf discs were placed on agar in a 24-well microtiter plate and sprayed with aqueous test solutions prepared from 10′000 ppm DMSO stock solutions. After drying, the leaf discs were infested with an aphid population of mixed ages. The samples were assessed for mortality 6 days after infestation.

[5] = tested on: Spodoptera littoralis (Egyptian Cotton Leaf Worm); assay: Example B7: Spodoptera littoralis, sprayed cotton leaf discs, L1 larvae; details: foliar, 72 h, application rate of 200 ppm, 3 days after infestation, read-out: control (at least one of mortality, anti-feedant effect, and growth inhibition)
Experimental: Example B7: Spodoptera littoralis (Egyptian Cotton Leaf Worm)
Cotton leaf discs were placed on agar in 24-well microtiter plates and sprayed with aqueous test solutions prepared from 10′000 ppm DMSO stock solutions. After drying the leaf discs were infested with five L1 larvae. The samples were assessed for mortality, anti-feedant effect, and growth inhibition in comparison to untreated samples 3 days after infestation. Control of Spodoptera littoralis by a test sample is when at least one of mortality, anti-feedant effect, and growth inhibition is higher than the untreated sample.

[6] = tested on: Thrips tabaci (Onion Thrips); assay: Example B10: Thrips tabaci, sprayed sunflower leaf discs, mixed ages; details: foliar, 144 h, application rate of 200 ppm, thrips population of mixed ages, 6 days after infestation
Experimental: Example B10: Thrips tabaci (Onion Thrips)
as §1, with “in” for “in a”, “plates” for “plate”, “drying” for “drying,”, “a thrips” for “an aphid”

[7] = tested on: Plutella xylostella (Diamond Back Moth); assay: Example B6: Plutella xylostella, treated artificial diet, L2 larvae; details: 120 h, application rate of 200 ppm, 5 days after infestation, read-out: effect in at least one of the two categories (mortality or growth inhibition)
Experimental: Example B6: Plutella xylostella (Diamond Back Moth)
24-well microtiter plates with artificial diet were treated with aqueous test solutions prepared from 10′000 ppm DMSO stock solutions by pipetting. After drying, the plates were infested with L2 larvae (10 to 15 per well). The samples were assessed for mortality and growth inhibition in comparison to untreated samples 5 days after infestation.

[8] = tested on: Bemisia tabaci (Cotton White fly); assay: Example B1: Bemisia tabaci, sprayed cotton leaf discs, adult mortality; details: foliar, 144 h, application rate of 200 ppm, adult white flies, 6 days after incubation
Experimental: Example B1: Bemisia tabaci (Cotton White fly)
Cotton leaf discs were placed on agar in 24-well microtiter plates and sprayed with aqueous test solutions prepared from 10′000 ppm DMSO stock solutions. After drying the leaf discs were infested with adult white flies. The samples were checked for mortality 6 days after incubation.

[9] = tested on: Frankliniella occidentalis (Western Flower Thrips); assay: Example B4: Frankliniella occidentalis, sprayed sunflower leaf discs, mixed ages; details: foliar, 168 h, application rate of 200 ppm, population of mixed ages, 7 days after infestation
Experimental: Example B4: Frankliniella occidentalis (Western Flower Thrips)
as §1, with “in” for “in a”, “plates” for “plate”, “[…]” for “10′000 ppm”, “drying” for “drying,”, “a Frankliniella” for “an aphid”, “7” for “6”

[10] = tested on: Tetranychus urticae (Two-Spotted Spider Mite); assay: Example B9: Tetranychus urticae, sprayed bean leaf discs, mixed population; details: foliar, 192 h
Experimental: Example B9: Tetranychus urticae (Two-Spotted Spider Mite)
Bean leaf discs on agar in 24-well microtiter plates were sprayed with aqueous test solutions prepared from 10′000 ppm DMSO stock solutions. After drying the leaf discs were infested with a mite population of mixed ages. The samples were assessed for mortality on mixed population (mobile stages) 8 days after infestation.

CCS(=O)(=O)c1cc(-c2cc(F)cc(F)c2)cnc1-c1nc2cc(C(F)(F)F)nnc2n1C [P1, 6-[5-(3,5-difluorophenyl)-3-ethylsulfonyl-2-pyridyl]-7-methyl-3-(trifluoromethyl)imidazo[4,5-c]pyridazine]
≥ 80%: mortality at 200 ppm [1] | percent control (mortality, anti-feedancy or growth inhibition) at 12.5 ppm [2] | percent effect (mortality or growth inhibition) at 200 ppm [3] | mortality at 200 ppm [4] | mortality at 200 ppm [5] | mortality at 200 ppm [6] | percent effect (mortality or growth inhibition) at 200 ppm [7] | mortality at 200 ppm [8] | mortality at 200 ppm [9]

CCS(=O)(=O)c1cc(-n2ccc(C(F)(F)F)n2)cnc1-c1nc2cc(C(F)(F)F)nnc2n1C [P2, 6-[3-ethylsulfonyl-5-[3-(trifluoromethyl)pyrazol-1-yl]-2-pyridyl]-7-methyl-3-(trifluoromethyl)imidazo[4,5-c]pyridazine]
≥ 80%: mortality at 200 ppm [1] | percent effect (mortality or growth inhibition) at 200 ppm [3] | mortality at 200 ppm [4] | mortality at 200 ppm [5] | mortality at 200 ppm [6] | percent effect (mortality or growth inhibition) at 200 ppm [7] | mortality at 200 ppm [8]

CCS(=O)(=O)c1cc(-c2ccc(C(F)(F)F)cc2)cnc1-c1nc2cc(C(F)(F)F)nnc2n1C [P3]
≥ 80%: mortality at 200 ppm [1] | percent effect (mortality or growth inhibition) at 200 ppm [3] | mortality at 200 ppm [4] | mortality at 200 ppm [5] | percent effect (mortality or growth inhibition) at 200 ppm [7] | mortality at 200 ppm [9]

CCSc1cc(-c2ccc(C(F)(F)F)cc2)ccc1-c1nc2cc(C(F)(F)F)nnc2n1C [P4, 6-[2-ethylsulfanyl-4-[4-(trifluoromethyl)phenyl]phenyl]-7-methyl-3-(trifluoromethyl)imidazo[4,5-c]pyridazine]
≥ 80%: mortality at 200 ppm [1] | mortality at 200 ppm [5] | percent effect (mortality or growth inhibition) at 200 ppm [7]

CCS(=O)(=O)c1cc(-c2ccc(C(F)(F)F)cc2)ccc1-c1nc2cc(C(F)(F)F)nnc2n1C [P5]
≥ 80%: mortality at 200 ppm [1] | mortality at 200 ppm [5] | percent effect (mortality or growth inhibition) at 200 ppm [7] | mortality at 200 ppm [10]
